Measured values reported in US20240009182A1, “REPURPOSED COMPOUND AS THERAPEUTIC FOR HPV-ASSOCIATED CANCERS” (The Chinese University of Hong Kong, priority 2022, published 2024).

Columns and labels:
ubiquitin in CaSki cells = assay: Endogenous ubiquitin level by western blotting in CaSki cells; format: cell-based, human; conditions: 3 μM, independent of cycloheximide
Experimental: (§1) FIGS. 2A-2C HBX 19818 treatment destabilized the steady-state level of HPV16 E7. FIG. 2A. Immunoblots showing the protein levels of HPV16 E7, endogenous ubiquitin and USP7. CaSki cells were either transfected with expression plasmids pcDNA 3.1 (left panel) or pcDNA:Flag-USP7, treated with 3 μM of HBX 19818. After 24 hr, the cells were treated with 10 μg/ml cycloheximide at different durations, as indicated. As a control, the cells were also treated with 5 μg/ml MG132 (a proteasome inhibitor) for 2 hrs prior to adding cycloheximide. The cells were harvested and subjected to western blotting using the respective specific antibodies as indicated. Beta-actin (β-actin) was included as a loading control. CHX: cycloheximide; KDa: kilodalton. FIG. 2B. The curves showing the level of HPV16 E7 protein when co-overexpressed with USP7 or treated with HBX 19818 at different time points. The stability of HPV16 E7 was analyzed using the one-phase exponential decay function in GraphPad™ Prism 9. Error bars indicate standard error of the mean (SEM). FIG. 2C. […] Data are expressed as mean±SEM. ns: not significant, P>0.05; *: P<0.05.
(§2) We next wanted to assess whether HBX 19818 can reverse USP7-mediated deubiquitination of E7. […] The expression levels of Flag-USP7, endogenous ubiquitin, and E7 were detected using anti-Flag-, ubiquitin- and HPV16 E7-specific antibodies, respectively (FIG. 2A). […]

[1] = system: CaSki (HPV16-positive) cancer cells; assay: Cell proliferation, cell counting kit-8 (CCK8) assay, CaSki; format: cell-based, human; conditions: DMSO 10.38±0.90 folds
Experimental: FIGS. 3A-3B HBX 19818 inhibited proliferation of CaSki cells, but not SCC25 cells. The growth curves showing the cell proliferation of (FIG. 3A) CaSki (HPV16-positive) and (FIG. 3B) SCC25 (HPV-negative) cancer cells in the presence or absence of HBX 19818. Cell proliferation of CaSki was assessed using cell counting kit 8 (CCK8) assay. Cells were seeded into 96-well plates and incubated with either DMSO (vehicle control) or HBX 19818 at 3 μM or 6 μM for different days as indicated. Optical density (OD) value at 450 nm indicating relative proliferation was measured daily (n=3). Error bars indicate standard error of the mean (SEM).
We assessed the ability of CaSki (HPV16 positive cells) and SCC25, which are HPV-null cells, to proliferate using a cell counting kit-8 (CCK8) assay. This assay measures the ability of viable cells to metabolize soluble tetrazolium salt (WST-8) to orange formazan, in which the latter can be measured at optical density (OD) of […]. A day prior to drug treatment, CaSki and SCC25 were seeded into each well of 96-well plates at a density of 2000 cells/well in 100 μL of DMEM containing 10% FBS. The cells were treated with either DMSO (vehicle control) or HBX 19818 at 3 μM and 6 μM for 24, 72, and 96 hrs. […] The OD value of the medium at 450 nm was measured using LEDETECT 96 microplate reader (Labexim Products).

[2] = system: HPV16 E7 protein in CaSki cells; assay: Cycloheximide chase assay of E7 stability in CaSki cells; format: cell-based; conditions: 3 μM for 24 hrs, then 10 μg/ml cycloheximide, E7 alone 40.32±0.94 mins
Experimental: as §1, §2

What does the source list for HBX 19818?
Level of ubiquitin (ubiquitin in CaSki cells): increased level of ubiquitin; Cell proliferation ability (relative OD 450 nm) ([1]; 3 μM): 7.82±1.14 folds; Cell proliferation ability (relative OD 450 nm) ([1]; 6 μM): 4.29±0.31 folds; Half-life of E7 [2]: 27.45 ± 0.88 min
